GI50 and IC50 data for 20 molecules are collected here from patent US8436012B2, “Imidazopyridin-2-one derivatives” (Daiichi Sankyo Company, Limited, priority 2008, dated 2013).

As a reminder, the IC50 is the concentration that inhibits the measured activity by half.

In one experiment the test system is WM-266-4 cells. Description: Cell Proliferation Inhibitory Test. Format: cell-based. Conditions: Homo sapiens, 72 h, cultured three days with test compound, MTT, read-out: 50% cell proliferation inhibitory activity (GI50 value). On the procedure:
WM-266-4 cells (ATCC, USA) were seeded in a 96-well plate and cultured overnight. Then, serial dilutions of the sample containing the test compound were prepared, added to each well and cultured another three days. Thereafter, the cell amount in each well was measured by MTT (MOSMANN, T., Rapid colorimetric assay for cellular growth and survival: application to proliferation and cytotoxicity assays. J. Immunol. Methods, 65, 55-63 (1983)). The 50% cell proliferation inhibitory activity (GI50 value) was calculated from the following formula (3). 100×[(T−T0)/(C−T0)]=50 (3)
Here, T represents values from the test compound added wells, C represents the value from the well to which the test compound was not added for three days, and To represents an initial measured value at the time of addition of the test compound.

The next experiment addresses T1, human mTOR (Homo sapiens, UniProt P42345).
T1 construct: the portion corresponding to 1362-2549aa at the C terminus of human mTOR; made in house
The experiment can be described thus: mTOR Kinase Activity Inhibition Test. Conditions: His-tagged mTOR (1362C), biotinylated peptide substrate, ATP, 3 hours at room temperature, fluorescence resonance energy transfer 665 nm/620 nm; read-out: IC50 value of mTOR enzyme inhibitory activity. The format is biochemical. On the procedure:
The kinase activity of mTOR was measured in the presence or absence of a test compound. A substrate peptide is phosphorylated by mTOR kinase activity. A complex of streptavidin-XL665 and anti-phosphorylated S6K (Thr389) antibody/anti-mouse IgG-cryptate binds to this phosphorylated peptide. At this moment, fluorescence resonance energy transfer takes place from antibody/anti-mouse IgG-cryptate exposed to light excitation to XL665, which results in emission of fluorescence at 665 nm. The mTOR kinase activity is detected using this principle.
(1) Sample Preparation and Enzymatic Reaction
An HEK293 cell line that constitutively expresses a His tag fused human mTOR has been established. His tag was introduced into the N terminus of the portion corresponding to 1362-2549aa at the C terminus of human mTOR. Cell lysate was prepared from this HEK293 cell line constitutively expressing His-tagged mTOR (1362C), and His-tagged mTOR (1362C) was purified using the His tag affinity according to a conventional method.
Next, an mTOR enzyme solution was prepared, which contains the aforementioned His-tagged mTOR (1362C) enzyme, 8 μg/mL of biotinylated peptide (Biotin-Ahx-[…]-amide (Sigma)), as well as 50 mM HEPES (pH 7.5), 20 mM MnCl2, 1 mg/ml BSA, an appropriate amount of protease inhibitor cocktail (Complete EDTA free, Roche), 100 ng/ml Calyculin A, 4 μg/ml Cantharidin and 10 mM DTT as other components.
The test compound was dissolved in DMSO, and serial dilutions were prepared with 20 μM ATP solution (50 mM HEPES (pH 7.5), 20 μM ATP) to achieve concentrations necessary for the assay. 5 μL of this compound solution was applied to each well of a 384 well small volume white Greiner plate.
5 μL of mTOR enzyme solution was added to the aforementioned well containing the test compound. After mixing, the mixture was incubated at room temperature for 3 hours to carry out the enzymatic reaction.
The same operation was performed with a solution of DMSO in 20 μM ATP solution as a positive control and with a solution of DMSO in 50 mM HEPES (pH 7.5) as a negative control.
(2) Detection of Enzymatic Reaction
After the enzymatic reaction, 5 μl each of an europium solution (a solution of anti-mouse IgG-cryptate (SCETI Medical Labo K.K.) and anti-phosphorylated S6K (Thr389) antibody (Cell Signaling Technology Inc.) in 50 mM HEPES (pH 7.5), 100 mM EDTA and 1.5 mg/ml BSA) and an XL665 solution (a solution of streptavidin-XL665 (SCETI Medical Labo K.K.) in 50 mM HEPES (pH 7.5), 100 mM EDTA, 0.8 M KF and 1.5 mg/ml BSA) were added in this order and then mixed. The mixture was incubated at 4° C. overnight. On the following day, the mixture was returned to room temperature and irradiated with excitation light at 337 nm. Fluorescence at 620 nm and fluorescence at 665 nm were measured with RUBYstar (BMG).
The mTOR inhibitory activity (%) was calculated using the ratio calculated from the measured values as an index of enzyme activity. Here, the ratio was calculated from the following formula (I). Ratio=10000×665 nm fluorescence value/620 nm fluorescence value (1)
The mTOR enzyme inhibitory activity (%) was calculated from the following formula (2). mTOR enzyme inhibitory activity (%)=100×[(P−S)/(P−N)] (2)
P: Ratio in well of positive control
N: Ratio in well of negative control
S: Ratio in well containing test compound
Further, an optimal curve was calculated based upon each concentration of the test compound prepared in serial dilutions and the mTOR enzyme inhibitory activity (%) at that concentration. The concentration at which 50% inhibition occurred was calculated as the IC50 value of mTOR enzyme inhibitory activity.

T1 sequence (P42345 1362-2549): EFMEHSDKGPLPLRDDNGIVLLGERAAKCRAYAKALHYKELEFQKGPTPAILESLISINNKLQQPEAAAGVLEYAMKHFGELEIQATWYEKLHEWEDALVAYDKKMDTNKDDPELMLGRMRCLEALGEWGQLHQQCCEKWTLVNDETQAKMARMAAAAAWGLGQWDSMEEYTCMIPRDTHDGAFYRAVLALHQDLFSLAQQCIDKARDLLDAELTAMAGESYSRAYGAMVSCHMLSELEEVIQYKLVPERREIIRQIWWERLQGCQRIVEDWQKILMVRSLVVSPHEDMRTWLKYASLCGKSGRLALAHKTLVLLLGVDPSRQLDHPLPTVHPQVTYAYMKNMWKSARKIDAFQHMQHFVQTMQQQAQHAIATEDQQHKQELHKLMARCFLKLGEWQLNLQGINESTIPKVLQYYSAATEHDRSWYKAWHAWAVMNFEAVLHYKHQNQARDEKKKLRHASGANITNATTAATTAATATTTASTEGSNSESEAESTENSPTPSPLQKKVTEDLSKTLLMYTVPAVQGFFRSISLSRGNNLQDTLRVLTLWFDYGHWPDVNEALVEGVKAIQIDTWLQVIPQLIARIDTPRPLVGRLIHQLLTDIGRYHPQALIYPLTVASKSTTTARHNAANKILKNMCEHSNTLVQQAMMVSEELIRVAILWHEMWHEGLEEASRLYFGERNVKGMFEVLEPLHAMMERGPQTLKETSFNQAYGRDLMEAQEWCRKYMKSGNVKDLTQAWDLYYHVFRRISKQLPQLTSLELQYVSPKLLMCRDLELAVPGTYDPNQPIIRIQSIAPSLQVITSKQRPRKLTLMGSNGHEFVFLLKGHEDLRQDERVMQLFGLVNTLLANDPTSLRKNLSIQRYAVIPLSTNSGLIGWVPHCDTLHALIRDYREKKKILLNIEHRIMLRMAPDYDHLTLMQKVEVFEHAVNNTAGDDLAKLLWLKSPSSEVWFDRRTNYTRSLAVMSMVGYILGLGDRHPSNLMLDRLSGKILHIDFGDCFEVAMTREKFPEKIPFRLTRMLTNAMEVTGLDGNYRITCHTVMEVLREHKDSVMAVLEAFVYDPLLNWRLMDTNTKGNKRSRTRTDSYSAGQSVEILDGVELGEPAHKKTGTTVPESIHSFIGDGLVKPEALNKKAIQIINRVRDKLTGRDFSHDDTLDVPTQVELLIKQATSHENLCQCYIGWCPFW

As for `O=c1[nH]c2ncc(-c3cnc4[nH]ccc4c3)cc2n1C[C@@H]1COC[C@H]1O` (racemic) [Example 61], the GI50 with WM-266-4 cells is under 3000 nM. Besides, the IC50 at human mTOR is under 50 nM.
`O=c1[nH]c2ncc(-c3cnc4[nH]ccc4c3)cc2n1C[C@@H]1COC[C@@H]1O` (racemic) [Example 62]: the GI50 in the experiment on WM-266-4 cells was under 3000 nM. In addition, the IC50 at human mTOR is under 50 nM.
For `CO[C@H]1COC[C@H]1Cn1c(=O)[nH]c2ncc(-c3cnc4[nH]ccc4c3)cc21` (racemic) [Example 63] the same measures were under 3000 nM and under 50 nM.
For `CO[C@@H]1COC[C@H]1Cn1c(=O)[nH]c2ncc(-c3cnc4[nH]ccc4c3)cc21` (racemic) [Example 64, 1-{[trans-4-Methoxytetrahydrofuran-3-yl]methyl}-6-(1H-pyrrolo[2,3-b]pyridin-5-yl)-1,3-dihydro-2H-imidazo[4,5-b]pyridin-2-one] the same measures were under 3000 nM and under 50 nM.
For `O=c1[nH]c2ncc(-c3cnc4[nH]ccc4c3)cc2n1C[C@H]1COC[C@@H](O)C1` (racemic) [Example 65, 1-{[cis-5-Hydroxytetrahydro-2H-pyran-3-yl]methyl}-6-(1H-pyrrolo[2,3-b]pyridin-5-yl)-1,3-dihydro-2H-imidazo[4,5-b]pyridin-2-one] the same measures were under 3000 nM and under 50 nM.
On to `O=c1[nH]c2ncc(-c3cnc4[nH]ccc4c3)cc2n1C[C@H]1COC[C@H](O)C1` (racemic) [Example 66, 1-{[trans-5-Hydroxytetrahydro-2H-pyran-3-yl]methyl}-6-(1H-pyrrolo[2,3-b]pyridin-5-yl)-1,3-dihydro-2H-imidazo[4,5-b]pyridin-2-one], for which the IC50 at human mTOR is under 50 nM.
Consider `CO[C@@H]1COC[C@H](Cn2c(=O)[nH]c3ncc(-c4cnc5[nH]ccc5c4)cc32)C1` (racemic) [Example 67, 1-{[cis-5-Methoxytetrahydro-2H-pyran-3-yl]methyl}-6-(1H-pyrrolo[2,3-b]pyridin-5-yl)-1,3-dihydro-2H-imidazo[4,5-b]pyridin-2-one], for which, in the experiment with WM-266-4 cells, the GI50 was under 3000 nM. Also, the IC50 at human mTOR is under 50 nM.
For `CC1(C)CC(Cn2c(=O)[nH]c3ncc(-c4cnc5[nH]ccc5c4)cc32)CCO1` (racemic) [Example 70, 1-[(2,2-Dimethyltetrahydro-2H-pyran-4-yl)methyl]-6-(1H-pyrrolo[2,3-b]pyridin-5-yl)-1,3-dihydro-2H-imidazo[4,5-b]pyridin-2-one] the same measures were under 3000 nM and under 50 nM.
For `CO[C@@H]1CCC[C@@H](Cn2c(=O)[nH]c3ncc(-c4cnc5[nH]ccc5c4)cc32)C1` (racemic) [Example 104, 1-{[trans-3-Methoxycyclohexyl]methyl}-6-(1H-pyrrolo[2,3-b]pyridin-5-yl)-1,3-dihydro-2H-imidazo[4,5-b]pyridin-2-one] the same measures were under 3000 nM and under 50 nM.
With `CO[C@H]1CCC[C@@H](Cn2c(=O)[nH]c3ncc(-c4cnc5[nH]ccc5c4)cc32)C1` (racemic) [Example 105, 1-{[cis-3-Methoxycyclohexyl]methyl}-6-(1H-pyrrolo[2,3-b]pyridin-5-yl)-1,3-dihydro-2H-imidazo[4,5-b]pyridin-2-one], the GI50 with WM-266-4 cells is under 3000 nM. For the same molecule, the IC50 at human mTOR was under 50 nM.
For `O=c1[nH]c2ncc(-c3cnc4[nH]ccc4c3)cc2n1C[C@H]1CC[C@H](O)CO1` (racemic) [Example 111, 2,6-Anhydro-1,3,4-trideoxy-1-[2-oxo-6-(1H-pyrrolo[2,3-b]pyridin-5-yl)-2,3-dihydro-1H-imidazo[4,5-b]pyridin-1-yl]-DL-erythro-hexitol] the same measures were under 3000 nM and under 50 nM.
For `O=c1[nH]c2ncc(-c3cnc4[nH]ccc4c3)cc2n1C[C@H]1CC[C@@H](O)CO1` (racemic) [Example 112, 2,6-Anhydro-1,3,4-trideoxy-1-[2-oxo-6-(1H-pyrrolo[2,3-b]pyridin-5-yl)-2,3-dihydro-1H-imidazo[4,5-b]pyridin-1-yl]-DL-threo-hexitol] the same measures were under 3000 nM and under 50 nM.
As to `CO[C@@H]1CC[C@H](Cn2c(=O)[nH]c3ncc(-c4cnc5[nH]ccc5c4)cc32)OC1` (racemic) [Example 113, 2,6-Anhydro-1,3,4-trideoxy-5-O-methyl-1-[2-oxo-6-(1H-pyrrolo[2,3-b]pyridin-5-yl)-2,3-dihydro-1H-imidazo[4,5-b]pyridin-1-yl]-DL-threo-hexitol], the GI50 with WM-266-4 cells was under 3000 nM. In addition, at human mTOR, the IC50 is under 50 nM.
On to `O=c1[nH]c2ncc(-c3cncc4ccccc34)cc2n1CC1CCOCC1` [Example 11, 6-Isoquinolin-4-yl-1-(tetrahydro-2H-pyran-4-ylmethyl)-1,3-dihydro-2H-imidazo[4,5-b]pyridin-2-one], for which the IC50 at human mTOR was 100 to 5000 nM.
The same measure, in the same setting: the result for `O=c1[nH]c2ncc(-c3ccnc4ccccc34)cc2n1CC1CCOCC1` [Example 12, 6-Quinolin-4-yl-1-(tetrahydro-2H-pyran-4-ylmethyl)-1,3-dihydro-2H-imidazo[4,5-b]pyridin-2-one] reads 100 to 5000 nM.
On the same count and under the same terms, the result for `O=c1[nH]c2ncc(-c3cccc4ncccc34)cc2n1CC1CCOCC1` [Example 13, 6-Quinolin-5-yl-1-(tetrahydro-2H-pyran-4-ylmethyl)-1,3-dihydro-2H-imidazo[4,5-b]pyridin-2-one] reads 100 to 5000 nM; that for `O=c1[nH]c2ncc(-c3cnc4[nH]cnc4c3)cc2n1CC1CCOCC1` [Example 22, 1-(Tetrahydro-2H-pyran-4-ylmethyl)-1,3-dihydro-2H,3′H-6,6′-biimidazo[4,5-b]pyridin-2-one], under 50 nM; that for `O=C1Cc2cc(-c3cnc4[nH]c(=O)n(CC5CCOCC5)c4c3)cnc2N1` [Example 30, 6-(2-Oxo-2,3-dihydro-1H-pyrrolo[2,3-b]pyridin-5-yl)-1-(tetrahydro-2H-pyran-4-ylmethyl)-1,3-dihydro-2H-imidazo[4,5-b]pyridin-2-one], 100 to 5000 nM.
Same read-out and setting: next, `O=C(O)c1cc2cc(-c3cnc4[nH]c(=O)n(CC5CCOCC5)c4c3)ccc2[nH]1` [Example 80, 5-[2-Oxo-1-(tetrahydro-2H-pyran-4-ylmethyl)-2,3-dihydro-1H-imidazo[4,5-b]pyridin-6-yl]-1H-indole-2-carboxylic acid]: 100 to 5000 nM.
On to `O=C1CCOCC1Cn1c(=O)[nH]c2ncc(-c3cnc4[nH]ccc4c3)cc21` (centres unmarked) [Example 106, 1-[(4-Oxotetrahydro-2H-pyran-3-yl)methyl]-6-(1H-pyrrolo[2,3-b]pyridin-5-yl)-1,3-dihydro-2H-imidazo[4,5-b]pyridin-2-one], for which, on human mTOR, the IC50 is under 50 nM.
